In US9630961B2, “Arginine methyltransferase inhibitors and uses thereof” (Epizyme, Inc., priority 2013, dated 2017):

Molecular target: T1, PRMT3 (Homo sapiens, UniProt O60678)
T1 construct: GST-tagged PRMT3; made in house; host or cells: E. coli BL21(DE3) Gold
Experiment: PRMT3 Biochemical Assay (3H-SAM Flashplate, peptide substrate)
Settings: 30 min preincubation, room temperature
Excerpt: S-adenosylmethionine (SAM), S-adenosylhomocysteine (SAH), bicine, Tween20, dimethylsulfoxide (DMSO), bovine skin gelatin (BSG), isopropyl-β-D-thiogalactopyranoside (IPTG), and Tris(2-carboxyethyl)phosphine hydrochloride solution (TCEP) were purchased from Sigma-Aldrich at the highest level of purity possible. ^3H-SAM was purchase from American Radiolabeled Chemicals with a specific activity of 80 Ci/mmol. 384-well streptavidin Flashplates were purchased from PerkinElmer.
Peptide containing the classic RMT substrate motif was synthesized with an N-terminal linker-affinity tag motif and a C-terminal amide cap by 21st Century Biochemicals. The peptide was purified by high-performance liquid chromatography (HPLC) to greater than 95% purity and confirmed by liquid chromatography mass spectrometry (LC-MS). The sequence was Biot-Ahx-[…]-amide (SEQ ID NO.:11).
Full-length human PRMT3 (NM_005788.3) isoform 1 transcript clone was amplified from an HEK 293 cDNA library and subcloned into pGEX-KG (GE Life Sciences). The resulting construct encodes an N-terminal GST tag and a thrombin cleavage sequence ([…] […] […] […]) (SEQ ID NO.: 12) fused directly to Cys 2 of PRMT3.
E. coli (BL21(DE3) Gold, Stratagene) made competent by the CaCl2 method were transformed with the PRMT3 construct and ampicillin selection. Protein over-expression was accomplished by growing the PRMT3 expressing E. coli clone and inducing expression with 0.3 mM IPTG at 16° C. The culture was grown for 12 hours, harvested by centrifugation, and stored at −80° C. for purification.
GST-tagged PRMT3 eluted with 25-400 mM phosphate in buffer C. Protein was concentrated and buffer was exchanged to 20 mM Tris, 150 mM NaCl, 5% glycerol, 5 mM β-mercaptoethanol, pH7.8 by ultrafiltration. The purity of recovered protein was 70%.
General Procedure for PRMT3 Enzyme Assays on Peptide Substrates.
The assays were all performed in a buffer consisting of 20 mM Bicine (pH=7.6), 1 mM TCEP, 0.005% BSG, and 0.002% Tween 20, prepared on the day of use. Compounds in 100% DMSO (1 ul) were spotted into a polypropylene 384-well V-bottom plates (Greiner) using a Platemate Plus outfitted with a 384-channel head (Thermo Scientific). DMSO (1 ul) was added to Columns 11, 12, 23, 24, rows A-H for the maximum signal control and 1 ul of SAH, a known product and inhibitor of PRMT3, was added to columns 11, 12, 23, 24, rows I-P for the minimum signal control. A cocktail (40 ul) containing the PRMT3 enzyme was added by Multidrop Combi (Thermo-Fisher). The compounds were allowed to incubate with PRMT3 for 30 min at room temperature, then a cocktail (10 ul) containing SAM and peptide was added to initiate the reaction (final volume=51 ul). The final concentrations of the components were as follows: PRMT3 was 0.5 nM, ^3H-SAM was 100 nM, non-radiolabeled SAM was 1.8 uM, peptide was 330 nM, SAH in the minimum signal control wells was 1 mM, and the DMSO concentration was 2%. The assays were stopped by the addition of potassium chloride (10 ul) to a final concentration of 100 mM. 50 ul of the reaction in the 384-well polypropylene plate was then transferred to a 384-well Flashplate and the biotinylated peptides were allowed to bind to the streptavidin surface for at least 1 hour before being washed once with 0.1% Tween20 in a Biotek ELx405 plate washer. The plates were then read in a PerkinElmer TopCount plate reader to measure the quantity of ^3H-labeled peptide bound to the Flashplate surface, measured as disintegrations per minute (dpm) or alternatively, referred to as counts per minute (cpm).
Where dpm=disintegrations per minute, cmpd=signal in assay well, and min and max are the respective minimum and maximum signal controls.
Where top and bottom are the normally allowed to float, but may be fixed at 100 or 0 respectively in a 3-parameter fit. The Hill Coefficient normally allowed to float but may also be fixed at 1 in a 3-parameter fit. […]

T1 sequence (O60678 with tags, fused parts or gaps): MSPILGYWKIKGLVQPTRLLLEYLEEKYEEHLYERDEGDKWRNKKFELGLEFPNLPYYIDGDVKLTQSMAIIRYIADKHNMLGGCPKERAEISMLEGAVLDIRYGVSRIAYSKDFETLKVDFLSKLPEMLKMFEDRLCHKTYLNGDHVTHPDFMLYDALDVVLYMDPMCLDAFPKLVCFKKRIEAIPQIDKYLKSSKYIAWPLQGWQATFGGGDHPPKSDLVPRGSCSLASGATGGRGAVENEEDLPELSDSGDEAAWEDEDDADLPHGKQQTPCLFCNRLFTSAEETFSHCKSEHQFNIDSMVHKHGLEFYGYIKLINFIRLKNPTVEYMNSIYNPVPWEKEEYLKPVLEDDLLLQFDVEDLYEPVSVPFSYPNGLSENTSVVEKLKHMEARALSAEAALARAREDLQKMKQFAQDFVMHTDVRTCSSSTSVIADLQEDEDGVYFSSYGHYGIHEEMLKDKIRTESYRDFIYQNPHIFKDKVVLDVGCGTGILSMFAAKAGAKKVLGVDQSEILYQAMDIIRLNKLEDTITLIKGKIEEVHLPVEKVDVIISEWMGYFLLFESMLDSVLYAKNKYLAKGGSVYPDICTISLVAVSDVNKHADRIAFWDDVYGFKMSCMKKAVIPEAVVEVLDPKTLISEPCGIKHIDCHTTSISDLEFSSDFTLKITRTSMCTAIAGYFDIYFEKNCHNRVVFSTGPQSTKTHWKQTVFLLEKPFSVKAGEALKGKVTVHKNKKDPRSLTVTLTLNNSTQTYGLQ

IC50	SMILES
3.01 to 10 µM	CC(C)Cn1cc(-c2n[nH]cc2CN(C)CCN)cn1 [Compound 23, N^1-((2′-isobutyl-3,4′-bi(1H-pyrazol)-4-yl)methyl)-N^1-methylethane-1,2-diamine]
3.01 to 10 µM	CN(CCN)Cc1c[nH]nc1-c1cnn(-c2ccccc2)c1 [Compound 17]
3.01 to 10 µM	CN(CCN)Cc1c[nH]nc1-c1ccc2nccn2c1 [Compound 21, N^1-((3-(imidazo[1,2-a]pyridin-6-yl)-1H-pyrazol-4-yl)methyl)-N^1-methylethane-1,2-diamine]
≥ 10 µM	CN(CCN)Cc1c[nH]nc1-c1ccnn1C [Compound 15]
3.01 to 10 µM	CN(CCN)Cc1c[nH]nc1-c1ccc2cnn(C)c2c1 [Compound 19, N^1-methyl-N^1-((3-(1-methyl-1H-indazol-6-yl)-1H-pyrazol-4-yl)methyl)ethane-1,2-diamine]
≥ 10 µM	CN(CCN)Cc1c[nH]nc1-c1cccs1 [Compound 5]
3.01 to 10 µM	CN(CCN)Cc1c[nH]nc1-c1cnn(Cc2ccccc2)c1 [Compound 24, N^1-((1′-benzyl-3,4′-bi(1H-pyrazol)-4-yl)methyl)-N^1-methylethane-1,2-diamine]
≥ 10 µM	CN(CCN)Cc1c[nH]nc1-c1cc[nH]n1 [Compound 14]
3.01 to 10 µM	CC(C)n1cc(-c2n[nH]cc2CN(C)CCN)cn1 [Compound 22]
≥ 10 µM	CN(CCN)Cc1c[nH]nc1-c1cn[nH]c1 [Compound 12]
3.01 to 10 µM	CN(CCN)Cc1c[nH]nc1-c1ccsc1 [Compound 3]
3.01 to 10 µM	CN(CCN)Cc1c[nH]nc1-c1ccc2ncnn2c1 [Compound 20]
3.01 to 10 µM	CCn1cc(-c2n[nH]cc2CN(C)CCN)cn1 [Compound 16]
3.01 to 10 µM	CN(CCN)Cc1c[nH]nc1-c1ccco1 [Compound 6]
≥ 10 µM	CN(CCN)Cc1c[nH]nc1-c1cncnc1 [Compound 4]
≥ 10 µM	CN(CCN)Cc1c[nH]nc1-c1cnn(CCO)c1 [Compound 18]
3.01 to 10 µM	CN(CCN)Cc1c[nH]nc1-c1ccc2scnc2c1 [Compound 9]
≥ 10 µM	Cc1noc(C)c1-c1n[nH]cc1CN(C)CCN [Compound 10]
≥ 10 µM	CN(CCN)Cc1c[nH]nc1-c1cnn(C)c1 [Compound 8]
1.01 to 3 µM	CN(CCN)Cc1c[nH]nc1-c1cnc2[nH]ccc2c1 [Compound 13]
≥ 10 µM	CN(CCN)Cc1c[nH]nc1-c1ccoc1 [Compound 7]
≥ 10 µM	COc1ncc(-c2n[nH]cc2CN(C)CCN)cn1 [Compound 11]
